This is an account of results in EP0514268A1, “Substituted amino acid azetidinyl pyridone derivatives, their preparation and use as medicines” (LABORATORIOS DEL DR. ESTEVE, S.A., priority 1991, dated 1992).

In data set [1] the test system is Citr. freundii ATCC 11606. Nature of the data set: Antimicrobial activity, agar dilution. In kind it is cell-based, Citrobacter freundii. Particulars: Citrobacter freundii, ATCC11606, 20 h, Agar Dextrose dilutions, 37°C, 20 heures, read-out: Activité pharmacologique antimicrobienne (concentrations). From the text:
(§1) L'activité pharmacologique antimicrobienne de ces composés a été étudiée selon les références exposées ci-dessous.
(§2) Activité pharmacologique antimicrobienne : G.L. Daquet et Y.A. Chabbect, techniques en bactériologie, Vol. 3, Flammarion Médecine-Sciences, Paris 1972, et W.B. Hugo et A.D. Rusell, Pharmaceutical Microbiology, Blackwell Scientific Publications, London, 1977.
(§3) Milieu de culture et solvant : Agar d'antibiotiques n° 1 (Oxoid CM 327) Bouillon de triptone-soja (Oxoid CM 129) Solution Physiologique Ringer 1/4 (Oxoid BR 52) Agar Dextrose (BBL 11165)
(§4) Microorganismes : "Bacillus subtilis" ATCC 6633 "Citrobacter freundii" ATCC 112606 "Enterobacter aerogenes" ATCC 15038 "Enterobacter cloacae" ATCC 23355 "Bacillus cereus" ATCC 1178 "Escherichia coli" ATCC 10799 "Escherichia coli" ATCC 23559 "Klebsiella pneumoniae" ATCC 10031 "Proteus vulgaris" ATCC 8427 "Morg. morganii" ATCC 8019 "Pseudomonas aeruginosa" ATCC 9721 "Pseudomonas aeruginosa" ATCC 10145 "Salmonella typhimurium" ATCC 14028 "Salmonella typhimurium" ATCC 6539 "Serratia marcescens" ATCC 13880 "Shigella flexnerii" ATCC 12022 "Staphylococcusepidermis" ATCC 155-1 "Staphylococcus aureus" ATCC 25178 "Streptococcus faecalis" ATCC 10541.
(§5) Chacun des microorganismes est ensemencé par strie dans des tubes d'Agar d'antibiotiques n° 1, et mis en incubation pendant 20 heures à 37°C. Ensuite, on prend une anse de culture, on ensemence dans un bouillon de Triptone-soja et on incube pendant 20 heures à 37°C. On dilue à 1/4 la culture obtenue avec une solution physiologique Ringer, de façon à obtenir une suspension normalisée de […] pour chaque organisme.
(§6) A partir d'une solution de 100 µg/ml, chaque produit est dilué dans l'Agar Dextrose (préalablement fondu et maintenu à 50°C) par dilutions successives de façon à obtenir les concentrations suivantes : 64-32-16-8-4-2-1-0,5-0,25-0,125 µg de dérivé/ml du milieu.
(§7) Postérieurement, chaque concentration de chaque produit est répartie dans des boîtes de Petri de 10 cm de diamètre, à raison de 10 ml de milieu par boîte et autant de boîtes que de microorganismes à tester.
(§8) Une fois le milieu refroidi, les boîtes sont ensemencées avec les inoculations à raison de 0,4 ml d'inoculation par boîte. On les étend avec une anse de Driglasky et on recueille le surnageant. Les boîtes ensemencées sont incubées à 37°C pendant 20 heures.
(§9) Les résultats obtenus sont décrits dans les tableaux suivants. Les concentrations sont données en µg/ml.
(Agar dilution tests growth on a series of plates holding different concentrations.)

For another data set, the system named is Staph. aureus ATCC 25178. Nature of the data set: Antimicrobial activity, agar dilution. In kind it is cell-based, Staphylococcus aureus. Particulars: Staphylococcus aureus, ATCC25178, 20 h, Agar Dextrose dilutions, 37°C, 20 heures, read-out: Activité pharmacologique antimicrobienne (concentrations).
Description: as §1, §2, §3, §4, §5, §6, §7, §8, §9

Data set [2] concerns Sal. typhimurium ATCC 14028. Briefly: Antimicrobial activity, agar dilution. In kind it is cell-based, Salmonella typhimurium. Particulars: Salmonella enterica, 20 h, Agar Dextrose dilutions, 37°C, 20 heures, read-out: Activité pharmacologique antimicrobienne (concentrations).
Description: as §1, §2, §3, §4, §5, §6, §7, §8, §9

The test system of a further data set is Ent. cloacae ATCC 23355. Nature of the data set: Antimicrobial activity, agar dilution. The format is cell-based, Enterobacter cloacae. Particulars: Enterobacter cloacae, ATCC23355, 20 h, Agar Dextrose dilutions, 37°C, 20 heures, read-out: Activité pharmacologique antimicrobienne (concentrations).
Description: as §1, §2, §3, §4, §5, §6, §7, §8, §9

Data set [3] concerns Ent. aerogenes ATCC 15038. Briefly: Antimicrobial activity, agar dilution. Particulars: Klebsiella aerogenes, ATCC15038, 20 h, Agar Dextrose dilutions, 37°C, 20 heures, read-out: Activité pharmacologique antimicrobienne (concentrations). The format is cell-based, Enterobacter aerogenes.
Description: as §1, §2, §3, §4, §5, §6, §7, §8, §9

The nature of data set [4]: Solubility in water and at pH 7.4. The format is physicochemical. From the text: Un grand nombre des composés de l'invention manifestent une augmentation de la solubilité dans l'eau ainsi que de la solubilité à pH 7,4 lorsqu'on compare avec les composés de référence. L'augmentation de solubilité au pH physiologique peut favoriser l'absorption du produit et la solubilité élevée dans l'eau permet l'administration du composé par voie parentérale.

The test system of data set [5] is Kleb. pneumoniae ATCC 10031. Nature of the data set: Antimicrobial activity, agar dilution. Particulars: Klebsiella pneumoniae, ATCC10031, 20 h, Agar Dextrose dilutions, 37°C, 20 heures, read-out: Activité pharmacologique antimicrobienne (concentrations). In kind it is cell-based, Klebsiella pneumoniae.
Description: as §1, §2, §3, §4, §5, §6, §7, §8, §9

Data set [6] has as its system Staph. epidermidis ATCC 155-1. Nature of the data set: Antimicrobial activity, agar dilution. In kind it is cell-based. Particulars: Staphylococcus epidermidis, ATCC155, 20 h, Agar Dextrose dilutions, 37°C, 20 heures, read-out: Activité pharmacologique antimicrobienne (concentrations).
Description: as §1, §2, §3, §4, §5, §6, §7, §8, §9

Another data set relates to Morg. morganii ATCC 8019. Briefly: Antimicrobial activity, agar dilution. Particulars: Morganella morganii, ATCC8019, 20 h, Agar Dextrose dilutions, 37°C, 20 heures, read-out: Activité pharmacologique antimicrobienne (concentrations). In kind it is cell-based.
Description: as §1, §2, §3, §4, §5, §6, §7, §8, §9

Data set [7] relates to Escherichia coli ATCC 23559. Nature of the data set: Antimicrobial activity, agar dilution. The format is cell-based. Particulars: Escherichia coli, ATCC23559, 20 h, Agar Dextrose dilutions, 37°C, 20 heures, read-out: Activité pharmacologique antimicrobienne (concentrations).
Description: as §1, §2, §3, §4, §5, §6, §7, §8, §9

The next data set has as its system Sal. typhi ATCC 6539. Nature of the data set: Antimicrobial activity, agar dilution. In kind it is cell-based. Particulars: Salmonella enterica, 20 h, read-out: Activité pharmacologique antimicrobienne (concentrations).
Description: as §1, §2, §3, §4, §5, §6, §7, §8, §9

Data set [8] has as its system Bacillus cereus ATCC 11778. Briefly: Antimicrobial activity, agar dilution. The format is cell-based. Particulars: Bacillus cereus, ATCC11778, 20 h, Agar Dextrose dilutions, 37°C, 20 heures, read-out: Activité pharmacologique antimicrobienne (concentrations).
Description: as §1, §2, §3, §4, §5, §6, §7, §8, §9

The test system of data set [9] is Proteus vulgaris ATCC 8427. Nature of the data set: Antimicrobial activity, agar dilution. The format is cell-based. Particulars: Proteus vulgaris, ATCC8427, 20 h, Agar Dextrose dilutions, 37°C, 20 heures, read-out: Activité pharmacologique antimicrobienne (concentrations).
Description: as §1, §2, §3, §4, §5, §6, §7, §8, §9

The test system of data set [10] is Bacillus subtilis ATCC 6633. Briefly: Antimicrobial activity, agar dilution. The format is cell-based. Particulars: ATCC6633, 20 h, Agar Dextrose dilutions, 37°C, 20 heures, read-out: Activité pharmacologique antimicrobienne (concentrations).
Description: as §1, §2, §3, §4, §5, §6, §7, §8, §9

The test system of data set [11] is Ps. aeruginosa ATCC 10145. Nature of the data set: Antimicrobial activity, agar dilution. The format is cell-based. Particulars: Pseudomonas aeruginosa, ATCC10145, 20 h, Agar Dextrose dilutions, 37°C, 20 heures, read-out: Activité pharmacologique antimicrobienne (concentrations).
Description: as §1, §2, §3, §4, §5, §6, §7, §8, §9

A further data set relates to Ps. aeruginosa ATCC 9721. Nature of the data set: Antimicrobial activity, agar dilution. The format is cell-based. Particulars: Pseudomonas aeruginosa, ATCC9721, 20 h, Agar Dextrose dilutions, 37°C, 20 heures, read-out: Activité pharmacologique antimicrobienne (concentrations).
Description: as §1, §2, §3, §4, §5, §6, §7, §8, §9

The test system of data set [12] is Escherichia coli ATCC 10799. Nature of the data set: Antimicrobial activity, agar dilution. In kind it is cell-based. Particulars: Escherichia coli, ATCC10799, 20 h, Agar Dextrose dilutions, 37°C, 20 heures, read-out: Activité pharmacologique antimicrobienne (concentrations).
Description: as §1, §2, §3, §4, §5, §6, §7, §8, §9

In data set [13] the test system is Shigella flexnerii ATCC 12022. Briefly: Antimicrobial activity, agar dilution. In kind it is cell-based. Particulars: ATCC12022, 20 h, Agar Dextrose dilutions, 37°C, 20 heures, read-out: Activité pharmacologique antimicrobienne (concentrations).
Description: as §1, §2, §3, §4, §5, §6, §7, §8, §9

The test system of data set [14] is Strep. faecalis ATCC 10541. Briefly: Antimicrobial activity, agar dilution. The format is cell-based, Streptococcus faecalis. Particulars: Enterococcus faecalis, ATCC10541, 20 h, Agar Dextrose dilutions, 37°C, 20 heures, read-out: Activité pharmacologique antimicrobienne (concentrations).
Description: as §1, §2, §3, §4, §5, §6, §7, §8, §9

Data set [15] relates to Serr. marcescens ATCC 13880. Briefly: Antimicrobial activity, agar dilution. In kind it is cell-based, Serratia marcescens. Particulars: Serratia marcescens, ATCC13880, 20 h, Agar Dextrose dilutions, 37°C, 20 heures, read-out: Activité pharmacologique antimicrobienne (concentrations).
Description: as §1, §2, §3, §4, §5, §6, §7, §8, §9

The term solubility denotes the dissolved amount per volume that the medium holds. A higher solubility goes with much dissolved substance. For the compound `C[C@H](N)C(=O)NC1CN(c2nc3c(cc2F)c(=O)c(C(=O)O)cn3-c2ccc(F)cc2F)C1` [Exemple 4bA, chlorhydratede l'acide 7-(3-Ala-amino-1-azétidinyl)-1-(2,4-difluorophényl)-6-fluoro-1,4-dihydro-4-oxo-1,8-naphtyridine-3-carboxylique], the MIC in data set [1] stood at 1 µg/mL; in the data set with Staph. aureus ATCC 25178, 1 µg/mL; in data set [2], 2 µg/mL; in the data set on Ent. cloacae ATCC 23355 it was 1 µg/mL; in [3] it was 1 µg/mL; in data set [5], 1 µg/mL. Also, the MIC in [6] is 4 µg/mL; in the data set with Morg. morganii ATCC 8019, 2 µg/mL; in [7], 1 µg/mL; with Sal. typhi ATCC 6539, 1 µg/mL; in data set [8] it was 4 µg/mL; in [9], 8 µg/mL. The MIC turned out to be 0.5 µg/mL in [10]; 16 µg/mL in [11]; 8 µg/mL in the data set with Ps. aeruginosa ATCC 9721; 2 µg/mL in [12]; 1 µg/mL in data set [13]; 8 µg/mL in data set [14]. In data set [15], the MIC worked out at 8 µg/mL. Also, the solubility in data set [4] (pH 7) amounted to 66.9 µg/mL; in data set [4] (water) it was 128 µg/mL.
